From article PMC12913230, “Investigating the Ligand‐Binding Properties of N‐arylbenzimidazoles as Novel Elastase Inhibitors” (Chemmedchem, 2025)

How the values were obtained:
[1] = biological target: T1, porcine pancreatic elastase (PPE) (Sus scrofa, UniProt P00772); assay: Elastase inhibition assay with SANA substrate; assay type: biochemical; settings: for %I @50 μM / mode of inhibition (Lineweaver–Burk plot) / IC50: PPE; for %I @50 μM: 50 µM compound, SANA substrate, mean ± SD, n = 3; for mode of inhibition (Lineweaver–Burk plot): SANA as substrate; for IC50: SANA substrate 1.6 mM, Tris-HCl pH 8.0; for Ki: binding with the free enzyme, secondary plot of Lineweaver–Burk slopes, SANA 0.5-1.5 mM, read-out: inhibition constant (Ki)
T1 construct: purchased Merck Sigma Aldrich (Milano, Italy)
Experimental: The inhibition mechanism was assessed using Lineweaver–Burk plot analysis.
Elastase inhibition was determined using the substrate N‐succ‐(Ala)3‐nitroanilide (SANA) as previously described.^[ [27] ^] The assay was performed in 0.1 M Tris‐HCl buffer (pH 8.0). PPE (3.3 µg mL^−1) was incubated with or without the compound for 20 min, and after incubation, the substrate (1.6 mM) was added. The release of p‐nitroaniline during cleavage of the substrate SANA by the enzyme activity was monitored at 410 nm. The control was performed with DMSO, while oleanolic acid was used as a positive control. […] The mode of inhibition on the enzyme was performed using the Lineweaver–Burk plot. Different concentrations of SANA (0.5, 0.75, 1.0, and 1.5 mM) were used for the assay. All reagents were purchased from “Merck Sigma Aldrich” (Milano, Italy).

[2] = Relative lipophilicity by reverse-phase TLC (RM); assay type: physicochemical; settings: RP-TLC C18, acetone–water 2/1 v/v, 25 °C, RM = log[(1/RF) − 1]
Experimental: In addition, we assessed the relative lipophilicity of the investigated compounds using the reverse‐phase thin layer chromatography (RP‐TLC), following the procedure detailed in Experimental Section. Based on retention factor (R F), we obtained the corresponding R M values for the homogenous series of compounds 1–9. The applied methodology is described in detail in the Experimental Section.
The experimental determination of relative lipophilicity was carried out using reversed‐phase thin‐layer chromatography (20 × 20 cm plates coated with C18 silica RP18 F254, E. Merck, Darmstadt, Germany). A binary solvent system consisting of acetone–water (2/1, v/v) served as the mobile phase. Compounds 1–9 were prepared in methanol to obtain a concentration of 2.0 mg/mL; from these working solutions, a volume of 0.2 μL was spotted on the plate, which was dried at 105 °C for 1 h before use. The chromatograms were developed to a distance of 10 cm from the origin in ascending TLC chambers and developed at 25 °C. After development, compound spots were visualized under UV light at 254 nm. Each determination was performed as triplicate 3 by spotting the compounds on the plate in distinct position; therefore, each RF value resulted as a mean value obtained in triplicate.

[3] = biological target: T1, porcine pancreatic elastase (PPE); parameters: method as in PMID 39456954; settings: PPE active site; cited from earlier work

T1 sequence (P00772 27-266): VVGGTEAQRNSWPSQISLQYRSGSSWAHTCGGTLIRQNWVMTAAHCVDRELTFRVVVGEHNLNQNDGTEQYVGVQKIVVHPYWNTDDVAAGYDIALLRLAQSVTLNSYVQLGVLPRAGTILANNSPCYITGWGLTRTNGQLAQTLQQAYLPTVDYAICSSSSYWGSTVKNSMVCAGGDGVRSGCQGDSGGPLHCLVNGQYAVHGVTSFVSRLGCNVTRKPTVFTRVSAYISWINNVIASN

Row | SMILES | %I @50 μM [1] [%] | RM (relative lipophilicity) [2] | mode of inhibition [3] | mode of inhibition (Lineweaver–Burk plot) [1] | IC50 [1] [µM] | Ki [1] [µM]
1 | Cc1cc(C)cc(Cn2c(SCC(=O)Nc3ccc(C)cc3Cl)nc3ccccc32)c1 [Compound 1, N‐(2‐chloro‐4‐methylphenyl)‐2‐[[1‐[(3,5‐dimethylphenyl)methyl]‐1H‐benzimidazol‐2‐yl]thio]acetamide] | 30.0 ± 2.1 | 1.023 | reversible competitive inhibitor |  |  | 
2 | Cc1cc(C)cc(Cn2c(SCC(=O)Nc3ccccc3Cl)nc3ccccc32)c1 [Compound 2, N‐(2‐Chlorophenyl)‐2‐(1‐(3,5‐dimethylbenzyl)‐1H‐benzo[d]imidazol‐2‐ylthio)acetamide] | 29.1 ± 2.3 | 0.971 |  |  |  | 
3 | Cc1cc(C)cc(Cn2c(SCC(=O)Nc3ccccc3Br)nc3ccccc32)c1 [Compound 3, N‐(2‐Bromophenyl)‐2‐(1‐(3,5‐dimethylbenzyl)‐1H‐benzo[d]imidazol‐2‐ylthio)acetamide] | 26.5 ± 0.4 | 0.938 |  |  |  | 
4 | Cc1cc(C)cc(Cn2c(SCC(=O)Nc3ccc(S(C)(=O)=O)cc3Cl)nc3ccccc32)c1 [Compound 4, N‐(2‐Chloro‐4‐(methylsulfonyl)phenyl)‐2‐(1‐(3,5‐dimethylbenzyl)‐1H‐benzo[d]imidazol‐2‐ylthio)acetamide] | 17.3 ± 0.7 | 0.678 |  |  |  | 
5 | Cc1cc(C)cc(Cn2c(SCC(=O)Nc3ccc(S(N)(=O)=O)cc3Cl)nc3ccccc32)c1 [Compound 5, N‐(2‐Chloro‐4‐sulfamoylphenyl)‐2‐(1‐(3,5‐dimethylbenzyl)‐1‐benzo[d]imidazol‐2‐ylthio)acetamide] | 19.3 ± 0.9 | 0.558 |  |  |  | 
6 | Cc1cc(C)cc(Cn2c(SCC(=O)Nc3ccccc3Cl)nc3ccc(Cl)cc32)c1 [Compound 6, 2‐(6‐Chloro‐1‐(3,5‐dimethylbenzyl)‐1H‐benzo[d]imidazol‐2‐ylthio)‐N‐(2‐chlorophenyl)acetamide] | 57.4 ± 2.6 | 1.221 |  | competitive | 44.8 ± 1.4 | 25.8
7 | Cc1cc(C)cc(Cn2c(SCC(=O)Nc3ccccc3Br)nc3ccc(Cl)cc32)c1 [Compound 7, N‐(2‐Bromophenyl)‐2‐(6‐chloro‐1‐(3,5‐dimethylbenzyl)‐1H‐benzo[d]imidazol‐2‐ylthio)acetamide] | 62.2 ± 2.1 | 1.195 |  | competitive | 41.1 ± 1.9 | 21
8 | Cc1cc(C)cc(Cn2c(SCC(=O)Nc3ccc(C)cc3Cl)nc3ccc(Cl)cc32)c1 [Compound 8, 2‐(6‐chloro‐1‐(3,5‐dimethylbenzyl)‐1H‐benzo[d]imidazol‐2‐ylthio)‐N‐(2‐chloro‐4‐methylphenyl)acetamide] | 40.6 ± 0.7 | 1.121 |  |  |  | 
9 | Cc1cc(C)cc(Cn2c(SCC(=O)Nc3ccc(S(C)(=O)=O)cc3Cl)nc3ccc(Cl)cc32)c1 [Compound 9, 2‐(6‐Chloro‐1‐(3,5‐dimethylbenzyl)‐1H‐benzo[d]imidazol‐2‐ylthio)‐N‐(2‐chloro‐4‐(methylsulfonyl)phenyl)acetamide] | 31.0 ± 0.6 | 1.023 |  |  |  | 
